{
  "source": "paper PMC10838953",
  "key": {"SGK": {"biological_target": "SGK (Homo sapiens, UniProt O00141)", "assay": "biochemical", "conditions": "read-out: %Ctrl @ 2000nM"}, "FGFR3": {"biological_target": "FGFR3 (Homo sapiens, UniProt P22607)", "sequence (P22607 23-806)": "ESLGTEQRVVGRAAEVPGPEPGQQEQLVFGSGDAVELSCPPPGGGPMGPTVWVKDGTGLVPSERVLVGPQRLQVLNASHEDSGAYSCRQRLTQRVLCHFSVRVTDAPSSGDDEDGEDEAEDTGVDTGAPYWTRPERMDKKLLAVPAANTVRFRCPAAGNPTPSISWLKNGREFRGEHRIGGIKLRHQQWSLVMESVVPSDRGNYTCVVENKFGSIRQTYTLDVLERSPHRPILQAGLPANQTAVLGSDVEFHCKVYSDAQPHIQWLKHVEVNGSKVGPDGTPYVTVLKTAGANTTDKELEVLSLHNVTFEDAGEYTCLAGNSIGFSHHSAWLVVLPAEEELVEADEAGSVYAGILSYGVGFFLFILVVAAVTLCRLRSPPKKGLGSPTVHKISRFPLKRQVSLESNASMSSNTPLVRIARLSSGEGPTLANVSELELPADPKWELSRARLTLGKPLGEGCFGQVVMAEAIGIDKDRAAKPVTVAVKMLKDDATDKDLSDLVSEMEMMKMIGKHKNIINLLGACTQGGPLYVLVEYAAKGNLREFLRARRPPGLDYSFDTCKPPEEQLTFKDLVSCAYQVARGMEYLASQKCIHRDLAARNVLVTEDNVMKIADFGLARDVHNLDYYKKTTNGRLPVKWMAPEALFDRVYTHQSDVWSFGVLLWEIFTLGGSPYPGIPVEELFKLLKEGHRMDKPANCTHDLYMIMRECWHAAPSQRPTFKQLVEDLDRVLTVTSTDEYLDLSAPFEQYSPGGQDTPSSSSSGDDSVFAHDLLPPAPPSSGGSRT", "assay": "biochemical", "conditions": "read-out: %Ctrl @ 2000nM"}, "MARK3": {"biological_target": "MARK3 (Homo sapiens, UniProt P27448)", "sequence (P27448 whole entry)": "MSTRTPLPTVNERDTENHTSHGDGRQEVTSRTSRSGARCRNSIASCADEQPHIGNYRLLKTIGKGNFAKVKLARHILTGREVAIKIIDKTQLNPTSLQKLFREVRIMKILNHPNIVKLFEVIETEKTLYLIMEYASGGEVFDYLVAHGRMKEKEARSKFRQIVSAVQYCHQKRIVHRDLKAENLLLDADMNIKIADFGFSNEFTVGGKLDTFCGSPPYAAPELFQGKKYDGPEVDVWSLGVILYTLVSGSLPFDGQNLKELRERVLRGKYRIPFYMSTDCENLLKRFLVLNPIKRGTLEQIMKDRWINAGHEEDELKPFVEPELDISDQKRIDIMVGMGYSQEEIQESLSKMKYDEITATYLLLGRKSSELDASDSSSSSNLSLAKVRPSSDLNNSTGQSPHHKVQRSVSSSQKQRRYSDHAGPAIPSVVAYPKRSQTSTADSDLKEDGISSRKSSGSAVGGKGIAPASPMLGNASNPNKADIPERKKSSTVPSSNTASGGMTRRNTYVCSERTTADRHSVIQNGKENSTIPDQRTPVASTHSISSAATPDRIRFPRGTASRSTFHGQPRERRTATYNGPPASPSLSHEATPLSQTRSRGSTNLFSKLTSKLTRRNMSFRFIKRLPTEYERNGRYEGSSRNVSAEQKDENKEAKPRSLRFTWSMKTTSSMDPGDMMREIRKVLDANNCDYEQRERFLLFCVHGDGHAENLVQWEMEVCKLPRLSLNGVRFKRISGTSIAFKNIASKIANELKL", "assay": "biochemical", "conditions": "read-out: %Ctrl @ 2000nM"}, "GRK1": {"biological_target": "GRK1 (Homo sapiens, UniProt Q15835)", "assay": "biochemical", "conditions": "read-out: %Ctrl @ 2000nM"}, "JNK1": {"biological_target": "JNK1 (Homo sapiens, UniProt P45983)", "assay": "biochemical", "conditions": "read-out: %Ctrl @ 2000nM"}, "CAMK2G": {"biological_target": "CAMK2G (Homo sapiens, UniProt Q13555)", "assay": "biochemical", "conditions": "read-out: %Ctrl @ 2000nM"}, "HIPK4": {"biological_target": "HIPK4 (Homo sapiens, UniProt Q8NE63)", "sequence (Q8NE63 whole entry)": "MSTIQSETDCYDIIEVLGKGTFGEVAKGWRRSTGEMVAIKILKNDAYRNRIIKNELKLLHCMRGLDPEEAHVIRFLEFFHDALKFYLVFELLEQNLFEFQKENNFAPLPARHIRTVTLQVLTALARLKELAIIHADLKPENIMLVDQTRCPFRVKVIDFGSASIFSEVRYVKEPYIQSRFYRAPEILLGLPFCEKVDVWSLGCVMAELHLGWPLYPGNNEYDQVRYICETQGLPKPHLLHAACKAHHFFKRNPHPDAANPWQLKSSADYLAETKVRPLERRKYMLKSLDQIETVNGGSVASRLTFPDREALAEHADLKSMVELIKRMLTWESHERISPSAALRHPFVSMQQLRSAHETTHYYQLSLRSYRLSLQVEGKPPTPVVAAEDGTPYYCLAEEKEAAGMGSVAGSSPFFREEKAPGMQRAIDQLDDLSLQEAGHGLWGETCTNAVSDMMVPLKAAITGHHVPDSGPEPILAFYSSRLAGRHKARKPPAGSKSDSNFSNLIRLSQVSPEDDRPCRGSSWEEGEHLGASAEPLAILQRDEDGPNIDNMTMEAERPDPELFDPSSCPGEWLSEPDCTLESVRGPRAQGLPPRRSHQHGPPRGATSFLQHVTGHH", "assay": "biochemical", "conditions": "read-out: %Ctrl @ 2000nM"}, "TRKA": {"biological_target": "TRKA (Homo sapiens, UniProt P04629)", "assay": "biochemical", "conditions": "read-out: %Ctrl @ 2000nM"}, "PIK3CA(H1047L)": {"biological_target": "PIK3CA(H1047L) (Homo sapiens, UniProt P42336, H1047L)", "assay": "biochemical", "conditions": "read-out: %Ctrl @ 2000nM"}, "PRKD1": {"biological_target": "PRKD1 (Homo sapiens, UniProt Q15139)", "assay": "biochemical", "conditions": "read-out: %Ctrl @ 2000nM"}, "[1]": {"biological_target": "JAK1(JH2domain-pseudokinase) (Homo sapiens, UniProt P23458)", "assay": "biochemical", "conditions": "read-out: %Ctrl @ 2000nM"}, "CDK3": {"biological_target": "CDK3 (Homo sapiens, UniProt Q00526)", "assay": "biochemical", "conditions": "read-out: %Ctrl @ 2000nM"}, "DDR2": {"biological_target": "DDR2 (Homo sapiens, UniProt Q16832)", "sequence (Q16832 22-855)": "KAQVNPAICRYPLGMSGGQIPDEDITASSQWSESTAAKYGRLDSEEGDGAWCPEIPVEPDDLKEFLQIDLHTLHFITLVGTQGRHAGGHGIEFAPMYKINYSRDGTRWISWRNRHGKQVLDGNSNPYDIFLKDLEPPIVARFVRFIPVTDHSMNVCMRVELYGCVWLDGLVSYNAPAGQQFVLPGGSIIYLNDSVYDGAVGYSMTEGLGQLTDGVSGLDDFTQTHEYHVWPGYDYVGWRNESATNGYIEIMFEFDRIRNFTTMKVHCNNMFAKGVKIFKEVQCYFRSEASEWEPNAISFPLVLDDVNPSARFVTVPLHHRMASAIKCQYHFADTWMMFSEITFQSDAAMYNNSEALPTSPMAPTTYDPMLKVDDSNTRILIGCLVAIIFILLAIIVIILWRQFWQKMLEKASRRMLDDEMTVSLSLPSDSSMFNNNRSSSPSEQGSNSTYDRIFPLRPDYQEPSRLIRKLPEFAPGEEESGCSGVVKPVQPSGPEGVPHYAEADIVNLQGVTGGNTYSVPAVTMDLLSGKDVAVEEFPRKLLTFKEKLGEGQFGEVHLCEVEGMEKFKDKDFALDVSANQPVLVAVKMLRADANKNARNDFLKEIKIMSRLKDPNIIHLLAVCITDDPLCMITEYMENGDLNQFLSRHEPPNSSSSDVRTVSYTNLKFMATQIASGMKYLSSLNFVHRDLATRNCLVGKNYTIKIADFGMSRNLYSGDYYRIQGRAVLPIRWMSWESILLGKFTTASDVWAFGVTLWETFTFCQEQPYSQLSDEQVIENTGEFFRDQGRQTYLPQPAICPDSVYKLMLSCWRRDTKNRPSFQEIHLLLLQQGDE", "assay": "biochemical", "conditions": "read-out: %Ctrl @ 2000nM"}, "ABL1-nonphosphorylated": {"biological_target": "ABL1-nonphosphorylated (Homo sapiens, UniProt P00519)", "assay": "biochemical", "conditions": "read-out: %Ctrl @ 2000nM"}, "BTK": {"biological_target": "BTK (Homo sapiens, UniProt Q06187)", "assay": "biochemical", "conditions": "read-out: %Ctrl @ 2000nM"}, "MLK1": {"biological_target": "MLK1 (Homo sapiens, UniProt P80192)", "assay": "biochemical", "conditions": "read-out: %Ctrl @ 2000nM"}, "CAMK1": {"biological_target": "CAMK1 (Homo sapiens, UniProt Q14012)", "sequence (Q14012 whole entry)": "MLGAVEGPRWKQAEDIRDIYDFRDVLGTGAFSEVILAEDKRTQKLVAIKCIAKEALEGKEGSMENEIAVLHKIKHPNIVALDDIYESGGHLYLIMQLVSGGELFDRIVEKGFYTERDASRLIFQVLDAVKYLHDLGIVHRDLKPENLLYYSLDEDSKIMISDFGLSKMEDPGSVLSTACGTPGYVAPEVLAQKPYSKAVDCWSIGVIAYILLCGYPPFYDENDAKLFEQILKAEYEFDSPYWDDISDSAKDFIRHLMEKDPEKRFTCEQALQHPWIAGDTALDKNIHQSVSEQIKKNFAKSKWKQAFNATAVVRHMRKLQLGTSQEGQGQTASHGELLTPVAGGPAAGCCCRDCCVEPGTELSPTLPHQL", "assay": "biochemical", "conditions": "read-out: %Ctrl @ 2000nM"}, "PIK3CG": {"biological_target": "PIK3CG (Homo sapiens, UniProt P48736)", "assay": "biochemical", "conditions": "read-out: %Ctrl @ 2000nM"}, "CASK": {"biological_target": "CASK (Homo sapiens, UniProt O14936)", "assay": "biochemical", "conditions": "read-out: %Ctrl @ 2000nM"}, "WNK1": {"biological_target": "WNK1 (Homo sapiens, UniProt Q9H4A3)", "assay": "biochemical", "conditions": "read-out: %Ctrl @ 2000nM"}, "LIMK1": {"biological_target": "LIMK1 (Homo sapiens, UniProt P53667)", "sequence (P53667 whole entry)": "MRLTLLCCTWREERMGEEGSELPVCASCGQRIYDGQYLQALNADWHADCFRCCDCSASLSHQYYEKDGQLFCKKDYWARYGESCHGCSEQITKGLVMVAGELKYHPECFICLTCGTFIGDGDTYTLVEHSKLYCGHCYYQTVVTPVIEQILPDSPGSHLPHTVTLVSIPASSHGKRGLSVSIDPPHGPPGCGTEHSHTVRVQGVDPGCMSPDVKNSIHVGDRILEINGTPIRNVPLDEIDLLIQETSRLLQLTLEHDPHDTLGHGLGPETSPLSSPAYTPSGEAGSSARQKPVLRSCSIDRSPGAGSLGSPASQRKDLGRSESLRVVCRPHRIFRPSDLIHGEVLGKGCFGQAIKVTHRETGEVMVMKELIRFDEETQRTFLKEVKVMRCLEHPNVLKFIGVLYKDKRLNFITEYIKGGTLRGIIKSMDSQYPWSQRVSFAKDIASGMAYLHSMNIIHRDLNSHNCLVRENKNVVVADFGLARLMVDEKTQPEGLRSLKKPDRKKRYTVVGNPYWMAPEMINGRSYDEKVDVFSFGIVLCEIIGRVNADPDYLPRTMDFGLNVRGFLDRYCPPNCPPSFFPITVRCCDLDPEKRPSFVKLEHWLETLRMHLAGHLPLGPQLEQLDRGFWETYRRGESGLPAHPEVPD", "assay": "biochemical", "conditions": "read-out: %Ctrl @ 2000nM"}, "YSK1": {"biological_target": "YSK1 (Homo sapiens, UniProt O00506)", "assay": "biochemical", "conditions": "read-out: %Ctrl @ 2000nM"}, "DDR1": {"biological_target": "DDR1 (Homo sapiens, UniProt Q08345)", "assay": "biochemical", "conditions": "read-out: %Ctrl @ 2000nM"}, "CK2 in 786-O cells": {"test_system": "CK2 in 786-O cells", "conditions": "read-out: IC50 CK2 activity in cell extracts"}, "NDR2": {"biological_target": "NDR2 (Homo sapiens, UniProt Q9Y2H1)", "assay": "biochemical", "conditions": "read-out: %Ctrl @ 2000nM"}, "MET(M1250T)": {"biological_target": "MET(M1250T) (Homo sapiens, UniProt P08581, M1250T)", "assay": "biochemical", "conditions": "read-out: %Ctrl @ 2000nM"}, "MRCKA": {"biological_target": "MRCKA (Homo sapiens, UniProt Q5VT25)", "assay": "biochemical", "conditions": "read-out: %Ctrl @ 2000nM"}, "PRKX": {"biological_target": "PRKX (Homo sapiens, UniProt P51817)", "assay": "biochemical", "conditions": "read-out: %Ctrl @ 2000nM"}, "MST1R": {"biological_target": "MST1R (Homo sapiens, UniProt Q04912)", "assay": "biochemical", "conditions": "read-out: %Ctrl @ 2000nM"}, "CIT": {"biological_target": "CIT (Homo sapiens, UniProt O14578)", "assay": "biochemical", "conditions": "read-out: %Ctrl @ 2000nM"}, "MAP4K5": {"biological_target": "MAP4K5 (Homo sapiens, UniProt Q9Y4K4)", "assay": "biochemical", "conditions": "read-out: %Ctrl @ 2000nM"}, "STK35": {"biological_target": "STK35 (Homo sapiens, UniProt Q8TDR2)", "assay": "biochemical", "conditions": "read-out: %Ctrl @ 2000nM"}, "TIE1": {"biological_target": "TIE1 (Homo sapiens, UniProt P35590)", "assay": "biochemical", "conditions": "read-out: %Ctrl @ 2000nM"}, "PIK3CA(I800L)": {"biological_target": "PIK3CA(I800L) (Homo sapiens, UniProt P42336, I800L)", "assay": "biochemical", "conditions": "read-out: %Ctrl @ 2000nM"}, "[2]": {"biological_target": "ABL1(H396P)-phosphorylated (Homo sapiens, UniProt P00519, H396P)", "assay": "biochemical", "conditions": "read-out: %Ctrl @ 2000nM"}, "MUSK": {"biological_target": "MUSK (Homo sapiens, UniProt O15146)", "assay": "biochemical", "conditions": "read-out: %Ctrl @ 2000nM"}, "EPHB2": {"biological_target": "EPHB2 (Homo sapiens, UniProt P29323)", "sequence (P29323 19-1055)": "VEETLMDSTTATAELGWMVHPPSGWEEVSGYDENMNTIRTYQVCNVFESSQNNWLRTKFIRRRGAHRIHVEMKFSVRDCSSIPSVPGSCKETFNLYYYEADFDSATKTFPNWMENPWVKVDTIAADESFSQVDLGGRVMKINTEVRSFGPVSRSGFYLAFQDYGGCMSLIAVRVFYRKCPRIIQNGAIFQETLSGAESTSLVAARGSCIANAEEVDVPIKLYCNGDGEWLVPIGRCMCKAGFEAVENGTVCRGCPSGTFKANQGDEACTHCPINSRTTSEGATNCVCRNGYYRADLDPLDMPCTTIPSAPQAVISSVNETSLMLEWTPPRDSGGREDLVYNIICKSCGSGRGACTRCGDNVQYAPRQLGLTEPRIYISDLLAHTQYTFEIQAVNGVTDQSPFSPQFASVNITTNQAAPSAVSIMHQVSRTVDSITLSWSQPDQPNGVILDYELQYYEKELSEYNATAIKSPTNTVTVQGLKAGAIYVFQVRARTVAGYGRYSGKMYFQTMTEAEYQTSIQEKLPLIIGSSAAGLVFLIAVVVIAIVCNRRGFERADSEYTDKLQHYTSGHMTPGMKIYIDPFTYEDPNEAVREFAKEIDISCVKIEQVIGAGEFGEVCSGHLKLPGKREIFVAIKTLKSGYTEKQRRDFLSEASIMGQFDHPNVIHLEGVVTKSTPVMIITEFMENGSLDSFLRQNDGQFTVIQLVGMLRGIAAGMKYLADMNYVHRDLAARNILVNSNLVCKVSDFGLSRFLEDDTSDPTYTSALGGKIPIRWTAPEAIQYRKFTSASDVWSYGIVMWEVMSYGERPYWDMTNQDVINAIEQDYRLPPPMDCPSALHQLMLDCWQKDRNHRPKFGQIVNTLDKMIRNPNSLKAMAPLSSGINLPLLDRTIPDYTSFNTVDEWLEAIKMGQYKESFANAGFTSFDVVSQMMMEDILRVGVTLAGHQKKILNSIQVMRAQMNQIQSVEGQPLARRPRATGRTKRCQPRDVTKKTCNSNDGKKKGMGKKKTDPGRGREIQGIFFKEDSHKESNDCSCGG", "assay": "biochemical", "conditions": "read-out: %Ctrl @ 2000nM"}, "DCAMKL2": {"biological_target": "DCAMKL2 (Homo sapiens, UniProt Q8N568)", "assay": "biochemical", "conditions": "read-out: %Ctrl @ 2000nM"}},
  "data": [
    {"smiles": "CC(C)COC(=O)c1[nH]c2ccc(F)cc2c1-c1cn(CC2CCN(CCNS(=O)(=O)c3ccc(CC(C)C)cc3)CC2)nn1", "note": "[AB668, isobutyl 5-fluoro-3-(1-((1-(2-((4-isobutylphenyl)sulfonamido)ethyl)piperidin-4-yl)methyl)-1H-1,2,3-triazol-4-yl)-1H-indole-2-carboxylate]", "values": [
      {"measurement": "remaining activity at 2 µM", "setting": "SGK", "value": 100, "unit": "%"},
      {"measurement": "remaining activity at 2 µM", "setting": "FGFR3", "value": 89, "unit": "%"},
      {"measurement": "remaining activity at 2 µM", "setting": "MARK3", "value": 0, "unit": "%"},
      {"measurement": "remaining activity at 2 µM", "setting": "GRK1", "value": 80, "unit": "%"},
      {"measurement": "remaining activity at 2 µM", "setting": "JNK1", "value": 77, "unit": "%"},
      {"measurement": "remaining activity at 2 µM", "setting": "CAMK2G", "value": 78, "unit": "%"},
      {"measurement": "remaining activity at 2 µM", "setting": "HIPK4", "value": 87, "unit": "%"},
      {"measurement": "remaining activity at 2 µM", "setting": "TRKA", "value": 96, "unit": "%"},
      {"measurement": "remaining activity at 2 µM", "setting": "PIK3CA(H1047L)", "value": 98, "unit": "%"},
      {"measurement": "remaining activity at 2 µM", "setting": "PRKD1", "value": 100, "unit": "%"},
      {"measurement": "remaining activity at 2 µM", "setting": "[1]", "value": 93, "unit": "%"},
      {"measurement": "remaining activity at 2 µM", "setting": "CDK3", "value": 100, "unit": "%"},
      {"measurement": "remaining activity at 2 µM", "setting": "DDR2", "value": 94, "unit": "%"},
      {"measurement": "remaining activity at 2 µM", "setting": "ABL1-nonphosphorylated", "value": 96, "unit": "%"},
      {"measurement": "remaining activity at 2 µM", "setting": "BTK", "value": 100, "unit": "%"},
      {"measurement": "NES: Asymmetric localization of PCP proteins", "setting": "786-O cells", "value": -1.441},
      {"measurement": "NES: G1/S Transition", "setting": "786-O cells", "value": -1.326},
      {"measurement": "NES: G2/M Checkpoints", "setting": "786-O cells", "value": -1.7},
      {"measurement": "NES: G2/M Transition", "setting": "786-O cells", "value": -1.306},
      {"measurement": "NES: Infection with Mycobacterium tuberculosis", "setting": "786-O cells", "value": 1.8732},
      {"measurement": "NES: Innate Immune System", "setting": "786-O cells", "value": 1.345},
      {"measurement": "NES: Keratan sulfate/keratin metabolism", "setting": "786-O cells", "value": 1.522},
      {"measurement": "NES: Mitotic G1 phase and G1/S transition", "setting": "786-O cells", "value": -1.351},
      {"measurement": "NES: Mitotic G2-G2/M phases", "setting": "786-O cells", "value": -1.306},
      {"measurement": "NES: Response of Mtb to phagocytosis", "setting": "786-O cells", "value": 1.92},
      {"measurement": "NES: TBC/RABGAPs", "setting": "786-O cells", "value": 1.83},
      {"measurement": "NES: p53-Independent G1/S DNA damage checkpoint", "setting": "786-O cells", "value": -1.606},
      {"measurement": "enrichmentScore: Asymmetric localization of PCP proteins", "setting": "786-O cells", "value": -0.3931},
      {"measurement": "enrichmentScore: G1/S Transition", "setting": "786-O cells", "value": -0.3116},
      {"measurement": "enrichmentScore: G2/M Checkpoints", "setting": "786-O cells", "value": -0.3959},
      {"measurement": "enrichmentScore: G2/M Transition", "setting": "786-O cells", "value": -0.2924},
      {"measurement": "enrichmentScore: Infection with Mycobacterium tuberculosis", "setting": "786-O cells", "value": 0.7066},
      {"measurement": "enrichmentScore: Innate Immune System", "setting": "786-O cells", "value": 0.2817},
      {"measurement": "enrichmentScore: Mitotic G2-G2/M phases", "setting": "786-O cells", "value": -0.2924},
      {"measurement": "enrichmentScore: Response of Mtb to phagocytosis", "setting": "786-O cells", "value": 0.737},
      {"measurement": "enrichmentScore: TBC/RABGAPs", "setting": "786-O cells", "value": 0.6519},
      {"measurement": "remaining activity at 2 µM", "setting": "MLK1", "value": 96, "unit": "%"},
      {"measurement": "remaining activity at 2 µM", "setting": "CAMK1", "value": 77, "unit": "%"},
      {"measurement": "remaining activity at 2 µM", "setting": "PIK3CG", "value": 90, "unit": "%"},
      {"measurement": "remaining activity at 2 µM", "setting": "CASK", "value": 97, "unit": "%"},
      {"measurement": "remaining activity at 2 µM", "setting": "WNK1", "value": 100, "unit": "%"},
      {"measurement": "remaining activity at 2 µM", "setting": "LIMK1", "value": 100, "unit": "%"},
      {"measurement": "remaining activity at 2 µM", "setting": "YSK1", "value": 82, "unit": "%"},
      {"measurement": "remaining activity at 2 µM", "setting": "DDR1", "value": 96, "unit": "%"},
      {"measurement": "IC50", "setting": "CK2 in 786-O cells", "value": "340 ± 70", "unit": "nM"},
      {"measurement": "remaining activity at 2 µM", "setting": "NDR2", "value": 100, "unit": "%"},
      {"measurement": "remaining activity at 2 µM", "setting": "MET(M1250T)", "value": 90, "unit": "%"},
      {"measurement": "remaining activity at 2 µM", "setting": "MRCKA", "value": 84, "unit": "%"},
      {"measurement": "remaining activity at 2 µM", "setting": "PRKX", "value": 69, "unit": "%"},
      {"measurement": "remaining activity at 2 µM", "setting": "MST1R", "value": 97, "unit": "%"},
      {"measurement": "remaining activity at 2 µM", "setting": "CIT", "value": 88, "unit": "%"},
      {"measurement": "remaining activity at 2 µM", "setting": "MAP4K5", "value": 96, "unit": "%"},
      {"measurement": "remaining activity at 2 µM", "setting": "STK35", "value": 89, "unit": "%"},
      {"measurement": "remaining activity at 2 µM", "setting": "TIE1", "value": 89, "unit": "%"},
      {"measurement": "remaining activity at 2 µM", "setting": "PIK3CA(I800L)", "value": 98, "unit": "%"},
      {"measurement": "remaining activity at 2 µM", "setting": "[2]", "value": 80, "unit": "%"},
      {"measurement": "remaining activity at 2 µM", "setting": "MUSK", "value": 92, "unit": "%"},
      {"measurement": "remaining activity at 2 µM", "setting": "EPHB2", "value": 98, "unit": "%"},
      {"measurement": "remaining activity at 2 µM", "setting": "DCAMKL2", "value": 93, "unit": "%"}
    ]}
  ]
}
